Laboratory results as given in article PMC10807611 (Cancer chemotherapy and pharmacology, 2023).
Each block holds one compound with its values, some of them ahead of it.

Assays:
[1] = Plasma pharmacokinetics on cycle 1 day 1; format: in vivo; details: human
[2] = test system: patients with relapsed/refractory AML or MDS; details: days 1–5 and 8–12 in combination with bortezomib; cited from earlier work
[3] = test system: patients in the registration trial; details: package insert; cited from earlier work

AUCINF ([1]; in vivo, iv, 800 mg/m2): 396.0 ± 151.1 (6) μM·h | T1/2 ([1]; in vivo, iv, 800 mg/m2): 3.51 ± 0.95 (6) h | AUCINF ([1]; in vivo, iv, 1000 mg/m2): 668.6 ± 452.2 (4) μM·h | T1/2 ([1]; in vivo, iv, 1000 mg/m2): 4.41 ± 1.30 (4) h
SMILES: O=C(/C=C/c1cccc(S(=O)(=O)Nc2ccccc2)c1)NO[C@@H]1O[C@H](C(=O)O)[C@@H](O)[C@H](O)[C@H]1O [Belinostat glucuronide, belinostat glucuronide]

Cmax ([1]; in vivo, Cmax concentrations): ~500 nM | V/F ([1]; in vivo, po): 784.6 ± 204.3 L | Cl/F ([1]; in vivo, po, 225 mg): 57.0 ± 13.6 L/h | Tmax ([1]; in vivo, po, 225 mg): 3 h | AUC(0-inf) ([1]; in vivo, po, 225 mg, AUCINF): 7.41 µM·h | half-life ([1]; in vivo, po, 225 mg, T1/2): 9.7 ± 1.93 h
SMILES: C=CCn1c(=O)c2cnc(Nc3ccc(N4CCN(C)CC4)cc3)nc2n1-c1cccc(C(C)(C)O)n1 [Adavosertib, adavosertib]

SMILES: O=C(/C=C/c1cccc(S(=O)(=O)Nc2ccccc2)c1)NO [Belinostat, belinostat]
clearance ([1]; plasma, iv, 800 mg/m2): 643 mL/min | Tmax ([1]; plasma, iv, 1000 mg/m2): 0.4 h | clearance ([1]; plasma, iv, 1000 mg/m2): 657 mL/min | Maximum tolerated dose (MTD) [2]: 1000 mg/m^2 | Patients with QTc prolongation, all grades [3]: 11%
